In patent publication US20050142080A1, “Cosmetic or dermatological light protection formulation with a benzoxazole derivative” (Beiersdorf AG, priority 2001, published 2005):

Structure (SMILES)	σ [mN/m] at 25° C. (surface tension)
CCCCCCC(CO)CCCC (centres unmarked) [Butyl Octanol]	26.9 mN/m
CCCCCCCCCCC(CO)CCCCCCCC (centres unmarked) [Octyldodecanol]	28.9 mN/m
